ChEMBL document CHEMBL4673328, “Three bufadienolides induce cell death in the human lung cancer cell line CL1-5 mainly through autophagy” (Bioorg Med Chem Lett, 2021)
Values joined by “and” are separate entries in the source; they are usually repeats but may differ in a detail not shown here. Equal entries are not always repeated. Active and inactive are the calls of the source. No cut-off for these calls is given here.

How the values were obtained:
[1] = Induction of cell cycle arrest in human CL1-5 cells assessed as subG1 phase at 100 nM incubated for 24 hrs by propidium iodide staining based flow cytometry analysis (reference value: 2.28%); format: functional
CL1-5 [2] = experiment: Induction of autophagy in human CL1-5 cells assessed as LC3-GFP punta formation at 100 nM incubated for 24 hrs by confocal microscopic analysis; format: functional, cell-based
[3] = Induction of cell cycle arrest in human CL1-5 cells assessed as G2/M phase at 100 nM incubated for 24 hrs by propidium iodide staining based flow cytometry analysis (reference value: 18.04%); format: functional
[4] = Induction of autophagy in human CL1-5 cells assessed as fold increase in mTOR expression level at 100 nM incubated for 24 hrs by Western blot analysis relative to control; format: functional
[5] = Induction of apoptosis in human CL1-5 cells assessed as late apoptotic cells at 100 nM incubated for 24 hrs by AnnexinV/FITC and propidium iodide staining based flow cytometry analysis (reference value: 2.30%); format: functional
[6] = Induction of autophagy in human CL1-5 cells assessed as fold decrease in p62 expression level at 100 nM incubated for 24 hrs by Western blot analysis relative to control; format: functional
[7] = Induction of autophagy in human CL1-5 cells assessed as fold increase in Atg5 expression level at 100 nM incubated for 24 hrs by Western blot analysis relative to control; format: functional
[8] = Induction of autophagy in human CL1-5 cells assessed as fold change in LC3-I expression level at 100 nM incubated for 24 hrs by Western blot analysis relative to control; format: functional
[9] = Induction of autophagy in human CL1-5 cells assessed as fold increase in Atg7 expression level at 100 nM incubated for 24 hrs by Western blot analysis relative to control; format: functional
[10] = Induction of apoptosis in human CL1-5 cells assessed as early apoptotic cells at 100 nM incubated for 24 hrs by AnnexinV/FITC and propidium iodide staining based flow cytometry analysis (reference value: 2.65%); format: functional
[11] = Induction of autophagy in human CL1-5 cells assessed as fold increase in LC3-II expression level at 100 nM incubated for 24 hrs by Western blot analysis relative to control; format: functional
[12] = Induction of autophagy in human CL1-5 cells assessed as fold decrease in phosphorylated mTOR expression level at 100 nM incubated for 24 hrs by Western blot analysis relative to control; format: functional
[13] = Induction of cell cycle arrest in human CL1-5 cells assessed as G0/G1 phase at 100 nM incubated for 24 hrs by propidium iodide staining based flow cytometry analysis (reference value: 62.2%); format: functional
[14] = Induction of autophagy in human CL1-5 cells assessed as fold increase in Beclin 1 expression level at 100 nM incubated for 24 hrs by Western blot analysis relative to control; format: functional
[15] = Induction of autophagy in human CL1-5 cells assessed as proportion of cells with degradative autophagic compartment at 100 nM incubated for 24 hrs by acridine orange staining based flow cytometry analysis (reference value: 0.34%); format: functional
[16] = Induction of apoptosis in human CL1-5 cells assessed as viable cells at 100 nM incubated for 24 hrs by AnnexinV/FITC and propidium iodide staining based flow cytometry analysis (reference value: 94.8 %); format: functional; details: read-out: Activity
[17] = Cytotoxicity against human CL1-5 cells assessed as reduction in cell viability incubated for 24 hrs by MTT assay; format: functional, cell-based; details: CL1-5, 24 h
[18] = Induction of cell cycle arrest in human CL1-5 cells assessed as S phase at 100 nM incubated for 24 hrs by propidium iodide staining based flow cytometry analysis (reference value: 16.85%); format: functional
[19] = Induction of apoptosis in human CL1-5 cells assessed as necrotic cells at 100 nM incubated for 24 hrs by AnnexinV/FITC and propidium iodide staining based flow cytometry analysis (reference value: 0.285%); format: functional
[20] = Induction of autophagy in human CL1-5 cells assessed as fold change in p62 expression level at 100 nM incubated for 24 hrs in presence of early-stage autophagy inhibitor, 3-MA by Western blot analysis relative to control; format: functional
[21] = Induction of autophagy in human CL1-5 cells assessed as fold increase in Atg5 expression level at 50 nM incubated for 24 hrs by Western blot analysis relative to control; format: functional
[22] = Induction of autophagy in human CL1-5 cells assessed as fold increase in mTOR expression level at 50 nM incubated for 24 hrs by Western blot analysis relative to control; format: functional
[23] = Induction of autophagy in human CL1-5 cells assessed as fold decrease in phosphorylated mTOR expression level at 50 nM incubated for 24 hrs by Western blot analysis relative to control; format: functional
[24] = Induction of autophagy in human CL1-5 cells assessed as fold change in LC3-I expression level at 50 nM incubated for 24 hrs by Western blot analysis relative to control; format: functional
[25] = Induction of autophagy in human CL1-5 cells assessed as fold increase in Beclin 1 expression level at 50 nM incubated for 24 hrs by Western blot analysis relative to control; format: functional
[26] = Induction of autophagy in human CL1-5 cells assessed as fold increase in Atg7 expression level at 50 nM incubated for 24 hrs by Western blot analysis relative to control; format: functional
CL1-5 [27] = experiment: Induction of autophagy in human CL1-5 cells assessed as LC3-GFP punta formation at 50 nM incubated for 24 hrs by confocal microscopic analysis; format: functional, cell-based
[28] = Induction of autophagy in human CL1-5 cells assessed as fold decrease in p62 expression level at 50 nM incubated for 24 hrs by Western blot analysis relative to control; format: functional
[29] = Induction of autophagy in human CL1-5 cells assessed as fold increase in LC3-II expression level at 50 nM incubated for 24 hrs by Western blot analysis relative to control; format: functional

SMILES	Activity [1]	Activity (CL1-5 [2])	Activity [3]	fold change (FC) [4]	Activity [5]	fold change (FC) [6]	fold change (FC) [7]	fold change (FC) [8]	fold change (FC) [9]	Activity [10]	fold change (FC) [11]	fold change (FC) [12]	Activity [13]	fold change (FC) [14]	Activity [15]	viability at 0.1 µM [16]	IC50 [17]	Activity [18]	Activity [19]	fold change (FC) [20]	further results
CC(=O)O[C@H]1C[C@H](C)O[C@@H](O[C@H]2CC[C@]3(C=O)[C@H]4[C@H](O)C(=O)[C@]5(C)[C@@H](c6ccc(=O)oc6)CC[C@]5(O)[C@@H]4CC[C@]3(O)C2)[C@H]1O	1.81%	Active	23.65%	1.28	4.93%	0.42	1.51	0.69	1.18	3.53%	1.84	0.31	60.1%	10.47	12.29%	90.9%	0.0706 µg/mL and 114 nM	13.21%	0.658%	1.19	–
CO[C@H]1C[C@@H]2CC[C@@H](C)[C@@](O)(O2)C(=O)C(=O)N2CCCC[C@H]2C(=O)O[C@H]([C@H](C)C[C@@H]2CC[C@@H](O)[C@H](OC)C2)CC(=O)[C@H](C)/C=C(\C)[C@@H](O)[C@@H](OC)C(=O)[C@H](C)C[C@H](C)/C=C/C=C/C=C/1C [SIROLIMUS]	–	–	–	–	–	–	–	–	–	–	–	–	–	–	–	–	–	–	–	–	fold change (FC) [21]: 2.17; fold change (FC) [22]: 1.14; fold change (FC) [23]: 0.26; fold change (FC) [24]: 1.69; fold change (FC) [25]: 16.57; fold change (FC) [26]: 1.26; Activity (CL1-5 [27]): Active; fold change (FC) [28]: 0.79; fold change (FC) [29]: 1.3
CC(=O)O[C@H]1C(=O)[C@@]2(C)[C@H]([C@H](OC(=O)c3ccccc3)[C@]3(O)C[C@H](OC(=O)[C@H](O)[C@@H](NC(=O)c4ccccc4)c4ccccc4)C(C)=C1C3(C)C)[C@]1(OC(C)=O)CO[C@@H]1C[C@@H]2O [PACLITAXEL]	–	–	–	–	–	–	–	–	–	18.6%	–	–	–	–	–	72%	–	–	2.31%	–	–
C[C@@]12O[C@H]3C[C@@H](O1)[C@]1(C=O)[C@H]4[C@H](O)C(=O)[C@]5(C)[C@@H](c6ccc(=O)oc6)CC[C@]5(O)[C@@H]4CC[C@@]1(C3)O2	2.25%	inactive	23.26%	1.23	5.88%	0.59	2.01	1.03	1.18	4.19%	2.36	0.58	60.71%	3.2	11.35%	88.6%	0.0767 µg/mL and 162 nM	13.2%	1.3%	1.02	–
C[C@H]1C[C@H](O)[C@H](O)[C@H](O[C@H]2CC[C@]3(C=O)[C@H]4[C@H](O)C(=O)[C@]5(C)[C@@H](c6ccc(=O)oc6)CC[C@]5(O)[C@@H]4CC[C@]3(O)C2)O1	2.14%	Active	28.04%	1.1	5.52%	0.4	2.77	0.93	1.76	4.72%	2.55	0.08	43.83%	12.86	14.45%	88.8%	0.0523 µg/mL and 90.8 nM	24.94%	0.91%	0.56	–
